Test results taken from PMC7238120, “Strong and Selective Inhibitory Effects of the Biflavonoid Selamariscina A against CYP2C8 and CYP2C9 Enzyme Activities in Human Liver Microsomes” (Pharmaceutics, 2020).

Experiments:
CYP2C8 [1] = target: T1, CYP2C8 (Homo sapiens, UniProt P10632); conditions: read-out: IC50, CYP2C8, known inhibitor; cited from earlier work
T1 sequence (P10632 1-490): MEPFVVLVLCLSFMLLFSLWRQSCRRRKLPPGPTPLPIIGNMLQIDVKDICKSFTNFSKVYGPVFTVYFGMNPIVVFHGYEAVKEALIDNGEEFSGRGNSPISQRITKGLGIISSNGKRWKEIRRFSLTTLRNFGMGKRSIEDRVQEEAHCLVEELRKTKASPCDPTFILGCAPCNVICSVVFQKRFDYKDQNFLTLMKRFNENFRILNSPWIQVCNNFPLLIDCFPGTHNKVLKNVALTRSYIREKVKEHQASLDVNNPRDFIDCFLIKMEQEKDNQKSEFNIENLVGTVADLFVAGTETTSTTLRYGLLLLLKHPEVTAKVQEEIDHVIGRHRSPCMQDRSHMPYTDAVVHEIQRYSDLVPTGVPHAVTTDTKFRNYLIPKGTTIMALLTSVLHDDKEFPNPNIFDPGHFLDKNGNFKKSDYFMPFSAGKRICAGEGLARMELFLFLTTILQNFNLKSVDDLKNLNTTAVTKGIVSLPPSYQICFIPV

CYP2C8 [2] = target: T1, CYP2C8; assay: Inhibition of CYP2C8-catalyzed rosiglitazone 5-hydroxylation in human liver microsomes; assay type: in vitro ADME; design: incubation mixtures containing pooled human liver microsomes (HLMs, XTreme 200, XenoTech); tissue XenoTech XTreme 200; host or cells: pooled human liver microsomes
Description: We used HLMs to determine the mechanisms and constants (Ki values) for […] A inhibition of CYP1A2, CYP2B6, CYP2C8, CYP2C9 and CYP3A. […] The substrates were used at concentrations approximately near to their respective Km values. […] The other conditions were the same as in the cytochrome P450 inhibition study. […] Phenomenex, Torrance, CA, USA) and analyzed using a Shimadzu LCMS 8060 triple-quadrupole mass spectrometer coupled with a Nexera X2 ultra high-performance liquid chromatography system (Shimadzu, Kyoto, Japan) equipped with an electrospray ionization interface. The mobile phase consisted of 0.1% formic acid in water (A) and 0.1% formic acid in acetonitrile (B). […] The flow rate was 0.2 mL/min. Electrospray ionization was performed in positive-ion mode at 4000 V or in negative-ion mode at -3500 V. The optimum operating conditions were determined as follows: vaporizer temperature, 300 °C; capillary temperature, 350 °C; collision gas (argon) pressure, 1.5 mTorr. Quantitation was conducted in selected reaction monitoring (SRM) modes with the precursor-to-product ion transition for each metabolite (Table 1 and Table 2). We analyzed the data with Shimadzu LabSolution LC-MS software. The IC50 values were calculated by WinNonlin software (Pharsight, Mountain View, CA, USA). […]

UGT1A3 = target: T2, UGT1A3 (Homo sapiens, UniProt P35503); assay: Inhibition of UGT1A3 (chenodeoxycholic acid glucuronidation) in human liver microsomes; assay type: in vitro ADME; conditions: substrate chenodeoxycholic acid; HLMs
T2 construct: tissue XenoTech XTreme 200; host or cells: pooled human liver microsomes
T2 sequence (P35503 29-534): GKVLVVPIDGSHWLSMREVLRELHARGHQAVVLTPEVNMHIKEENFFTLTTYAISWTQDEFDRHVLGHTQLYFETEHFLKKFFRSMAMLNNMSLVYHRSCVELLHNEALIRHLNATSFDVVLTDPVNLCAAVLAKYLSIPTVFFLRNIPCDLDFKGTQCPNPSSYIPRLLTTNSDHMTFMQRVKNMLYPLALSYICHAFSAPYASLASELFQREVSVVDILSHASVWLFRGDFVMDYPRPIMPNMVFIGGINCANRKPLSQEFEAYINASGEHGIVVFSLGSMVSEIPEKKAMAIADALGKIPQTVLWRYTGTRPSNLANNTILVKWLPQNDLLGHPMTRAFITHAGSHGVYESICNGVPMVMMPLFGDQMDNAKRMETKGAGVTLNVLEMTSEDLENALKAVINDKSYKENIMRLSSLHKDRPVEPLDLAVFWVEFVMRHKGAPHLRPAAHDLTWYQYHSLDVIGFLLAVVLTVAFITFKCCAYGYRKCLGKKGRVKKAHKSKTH
Procedure: The ability of selamariscina A to inhibit the metabolism of six UGT enzyme probe substrates was evaluated using previously developed methods with minor modifications. The microsomal incubation was performed by dividing the non-interactive substrate cocktail sets (set A included SN-38 for UGT1A1, CDCA for UGT1A3 and TFP for UGT1A4 while set B included N-SER for UGT1A6, MPA for UGT1A9 and NX for UGT2B7) (Table 2). In brief, HLMs (0.25 mg/mL) were activated by incubation in the presence of alamethicin (25 µg/mL) for 15 min on ice. After the addition of UGT probe substrates and inhibitor (0, 0.5, 2, 5, 20 and 50 μM), the incubation mixtures were pre-incubated at 37 °C for 5 min. […] After centrifugation at 18,000 g (5 min, 4 °C), aliquots of supernatants were analyzed by LC–MS/MS. […]
All metabolites and the IS were separated on a Kinetex XB-C18 column (100 × 2.10 mm, 2.6 μm, 100 Å; Phenomenex, Torrance, CA, USA) and analyzed using a Shimadzu LCMS 8060 triple-quadrupole mass spectrometer coupled with a Nexera X2 ultra high-performance liquid chromatography system (Shimadzu, Kyoto, Japan) equipped with an electrospray ionization interface. […] Quantitation was conducted in selected reaction monitoring (SRM) modes with the precursor-to-product ion transition for each metabolite (Table 1 and Table 2).
We analyzed the data with Shimadzu LabSolution LC–MS software. […]

Ki (CYP2C8 [2]; HLMs, average ± standard error, triplicate) [nM] | Mode of Inhibition, CYP2C8 rosiglitazone (CYP2C8 [2]; microsomes) | IC50 (UGT1A3) [nM] | Structure (SMILES) | IC50 (CYP2C8 [1]) [nM]
– | – | – | CC(C)(O)c1ccccc1CC[C@@H](SCC1(CC(=O)O)CC1)c1cccc(/C=C/c2ccc3ccc(Cl)cc3n2)c1 [montelukast, reference compound] | 20
10 ± 3 | Noncompetitive, partial | > 50000 | O=C1CC(c2cc(-c3c(O)ccc4c(=O)cc(-c5ccc(O)cc5)oc34)c(O)cc2O)Oc2cc(O)cc(O)c21 (stereo not shown) [selamariscina A] | –
